Values after ≈ are worked out from the molar mass of the structure shown. Like-named read-outs stand apart in the source and are kept apart here.
What was measured:
Experiment in all cases: microbe, parasite or virus in culture
Conditions in all cases: 48 h, read-out: MIC
[1] = test system: Candida albicans C. a.^f (Table 4); parameters: species or system yeast; tube dilution MIC in YEPD (± 1.2 M sorbitol), complete growth inhibition by turbidity
Procedure: (§1) Standard YEPD (Yeast Extract, Peptone, Dextrose) ([Sherman, 1990]), YEPD+S (YEPD with 1.2M sorbitol), YES (Yeast Extract, Dextrose and Supplements of Adenine, Histidine, Leucine, Uracil and Lysine) ([Alfa et al., 1993]) and YES+S (YES with 1.2 M sorbitol) ([Ribas et al., 1991]; [Ishiguro et al., 1997]), media were used for determination of MIC values of the tested compounds. A stock solution of 10 mg/ml of each tested compounds was prepared in DMSO and serial dilutions in DMSO were prepared. The final concentration of DMSO was 2% in the YEPD medium. […] The serial dilutions of compounds were dispensed into test tubes with 1 ml of YEPD or YEPD+S to make final concentrations of 200, 100, 50, 25, 12.5, 6.26, 3.125, 1.6, 0.8 and 0.4 μg/ml. The tested yeast strains were previously grown in YEPD, YEPD+S, YES or YES+S agar plates at 30°C for 48 h. For inoculation of YEPD or YEPD+S macro test tubes a suspension of tested fungus was produced with 10^5 cfu/ml (cfu - colony forming unit). 10 μl of suspension was used for inoculation of each tube. After 48 h incubation at 30°C the tubes were checked. The MIC value is the lowest concentration of the tested compound that could inhibit the fungal growth and the medium remained clear. From each tube 10 μl culture was plated on YEPD agar medium to check the contamination. The MIC tests were carried out in three parallels. Micro-culture assays of large numbers of samples were analyzed as described) ([Martins et al., 2011]). Essentially early log-phase cells were grown in YEPD, YEPD+S, YES or YES+S (1.2 M sorbitol) medium at 30°C, and diluted to cell density of 4 X 10^6 cells/ml in YEPD, YEPD+S, YES or YES+S medium and aliquots of 100 μl were dispensed into each small test tube (3 ml test tube size). Then, another 100 μl of YEPD, YEPD+S, YES or YES+S with the corresponding dilution of each compound at 2X concentration (4% DMSO) was added. The final volume was 200 μl, with the cells diluted to of 2 X 10^6 cells/ml and each compound diluted to 1X final concentration, containing increasing concentrations of antifungal (0, 1, 2, 5, 10, 20, 50, 100 and 200 μg/ml) or an equivalent volume of solvent (2% DMSO). The cells were grown at 30°C in an orbital roller and turbidity was analyzed after 24 and 48 h of incubation. The MIC was determined as the minimal concentration of tested compound that produced complete cell growth inhibition and kept the medium clear. The MIC values were calculated from at least three independent experiments.

[2] = test system: Candida albicans C. a.^g (Table 4); parameters: species or system yeast; tube dilution MIC in YEPD (± 1.2 M sorbitol), complete growth inhibition by turbidity
Procedure: as §1

[3] = test system: Candida albicans C. a.^h (Table 4); parameters: species or system yeast; tube dilution MIC in YEPD (± 1.2 M sorbitol), complete growth inhibition by turbidity
Procedure: as §1

[4] = test system: T1, Saccharomyces cerevisiae S. c.^d (wild-type CVX12-3A); parameters: species or system yeast; tube dilution MIC in YEPD (± 1.2 M sorbitol), complete growth inhibition by turbidity
T1 construct: CVX12-3A
Procedure: as §1

[5] = test system: T2, Schizosaccharomyces pombe S. p.^a (wild-type 972 h-); parameters: species or system yeast; tube dilution MIC in YEPD (± 1.2 M sorbitol), complete growth inhibition by turbidity
T2 construct: 972 h-
Procedure: as §1

[6] = test system: Candida albicans C. a.^f (Tables 5, 6); parameters: species or system yeast; micro tube dilution MIC in YES (± 1.2 M sorbitol), complete growth inhibition by turbidity
Procedure: as §1, with “h.” for “h. For inoculation of YEPD or YEPD+S macro test tubes a suspension of tested fungus was produced with 10^5 cfu/ml (cfu - colony forming unit). 10 μl of suspension was used for inoculation of each tube. After 48 h incubation at 30°C the tubes were checked. The MIC value is the lowest concentration of the tested compound that could inhibit the fungal growth and the medium remained clear. From each tube 10 μl culture was plated on YEPD agar medium to check the contamination. The MIC tests were carried out in three parallels.”

[7] = test system: Candida albicans C. a.^g (Table 6); parameters: species or system yeast; micro tube dilution MIC in YES (± 1.2 M sorbitol), complete growth inhibition by turbidity
Procedure: as §1, with “h.” for “h. For inoculation of YEPD or YEPD+S macro test tubes a suspension of tested fungus was produced with 10^5 cfu/ml (cfu - colony forming unit). 10 μl of suspension was used for inoculation of each tube. After 48 h incubation at 30°C the tubes were checked. The MIC value is the lowest concentration of the tested compound that could inhibit the fungal growth and the medium remained clear. From each tube 10 μl culture was plated on YEPD agar medium to check the contamination. The MIC tests were carried out in three parallels.”

[8] = test system: T1, Saccharomyces cerevisiae S. c.^d (wild-type CVX12-3A); parameters: species or system yeast; micro tube dilution MIC in YES (± 1.2 M sorbitol), complete growth inhibition by turbidity
Procedure: as §1, with “h.” for “h. For inoculation of YEPD or YEPD+S macro test tubes a suspension of tested fungus was produced with 10^5 cfu/ml (cfu - colony forming unit). 10 μl of suspension was used for inoculation of each tube. After 48 h incubation at 30°C the tubes were checked. The MIC value is the lowest concentration of the tested compound that could inhibit the fungal growth and the medium remained clear. From each tube 10 μl culture was plated on YEPD agar medium to check the contamination. The MIC tests were carried out in three parallels.”

[9] = test system: T2, Schizosaccharomyces pombe S. p.^a (wild-type 972 h-); parameters: species or system yeast; micro tube dilution MIC in YES (± 1.2 M sorbitol), complete growth inhibition by turbidity
Procedure: as §1, with “h.” for “h. For inoculation of YEPD or YEPD+S macro test tubes a suspension of tested fungus was produced with 10^5 cfu/ml (cfu - colony forming unit). 10 μl of suspension was used for inoculation of each tube. After 48 h incubation at 30°C the tubes were checked. The MIC value is the lowest concentration of the tested compound that could inhibit the fungal growth and the medium remained clear. From each tube 10 μl culture was plated on YEPD agar medium to check the contamination. The MIC tests were carried out in three parallels.”

## C[C@@H]1[C@H](O)[C@@H](C)/C=C/C=C/C=C/C=C/C=C/C=C/C=C/[C@H](O[C@@H]2O[C@H](C)[C@@H](O)[C@H](N)[C@@H]2O)C[C@@H]2O[C@](O)(C[C@@H](O)C[C@@H](O)[C@H](O)CC[C@@H](O)C[C@@H](O)CC(=O)O[C@H]1C)C[C@H](O)[C@H]2C(=O)O [amphotericin B]
[1]
  MIC: 0.4 µg/mL (≈ 0.433 µM)
[2]
  MIC: 0.8 µg/mL (≈ 0.866 µM)
[3]
  MIC: 0.4 µg/mL (≈ 0.433 µM)
[4]
  MIC: 0.2 µg/mL (≈ 0.216 µM)
[5]
  MIC: < 0.1 µg/mL
[6]
  MIC: 0.8 µg/mL (≈ 0.866 µM)
[7]
  MIC: 0.4 µg/mL (≈ 0.433 µM)
[8]
  MIC: 0.2 µg/mL (≈ 0.216 µM)
[9]
  MIC: < 0.1 µg/mL

Reference: paper PMC6689975, “Novel Cell Wall Antifungals Reveal a Special Synergistic Activity in pbr1 Mutants Resistant to the Glucan Synthesis Antifungals Papulacandins and Echinocandins” (Frontiers in Microbiology, 2019)
